Data reported in patent publication US20080171783A1, “COMPOSITIONS AND METHODS FOR TREATING HYPERPROLIFERATIVE DISEASE” (Migenix Inc., priority 2006, published 2008).

How the values were obtained:
K-562 = test: NCI In Vitro Cell Line Screening (SRB); assay type: cell-based; conditions: K-562, Leukemia, 48 h
HOP-62 = test: NCI In Vitro Cell Line Screening (SRB); assay type: cell-based, human; conditions: HOP-62, Non-Small Cell Lung Cancer, 48 h
NCI-H322M = test: NCI In Vitro Cell Line Screening (SRB); assay type: cell-based, human; conditions: Non-Small Cell Lung Cancer, 48 h; for GI50 / CC50: Homo sapiens; for CC50: read-out: LC50 (the source's name)
HCT-15 [1] = test: NCI In Vitro Cell Line Screening (SRB); assay type: cell-based, human; conditions: HCT-15, Colon Cancer, 48 h; for GI50 / CC50: Homo sapiens; for CC50: read-out: LC50 (the source's name)
SK-MEL-5 = test: NCI In Vitro Cell Line Screening (SRB); assay type: cell-based, human; conditions: SK-MEL-5, Melanoma, 48 h
UACC-257 = test: NCI In Vitro Cell Line Screening (SRB); assay type: cell-based, human; conditions: UACC-257, Melanoma, 48 h
UACC-62 = test: NCI In Vitro Cell Line Screening (SRB); assay type: cell-based, human; conditions: UACC-62, Melanoma, 48 h; for GI50 / CC50: Homo sapiens; for CC50: read-out: LC50 (the source's name)
SN12C = test: NCI In Vitro Cell Line Screening (SRB); assay type: cell-based, human; conditions: Renal Cancer, 48 h; for GI50 / CC50: Homo sapiens; for CC50: read-out: LC50 (the source's name)
HCT-15 [2] = test: Cell viability by XTT; assay type: cell-based; conditions: HCT-15, single dose 10 μM, four days
Method: (§1) Compounds were solubilized at […] in DMSO and were stored at −20° C. Test compounds were initially tested at a single concentration of 10 μM and a subset of test compounds were further tested in selected cell lines using a six concentration dose response curve.
(§2) Cell Preparation Cancer cell lines were passaged in T-75 flasks prior to use in the assay in cell culture medium recommended by the ATCC (American Type Culture Collection; Table 6). On the day preceding the assay, the cells were split 1:2 to assure they were in an exponential growth phase at the time of compound treatment. Total cell and viability quantification was performed using a hemocytometer and Trypan Blue dye exclusion. […] The cells were resuspended at the appropriate cell per mL (Table 6) in tissue culture medium and added to the microtitre plates in a volume of 100 μL. Colon cell lines were incubated overnight at 37° C./5% CO2 to allow for cell adherence to the plates.
(§3) Plate Format: Each plate contains cell control wells (cells only), drug calorimetric control wells (drug only) as well as experimental wells (drug plus cells). Samples were tested in triplicate at a concentration of 10 μM and five half-logarithmic dilutions.
(§4) Cell Viability by XTT: Following incubation at 37° C. in a 5% CO2 incubator for four days, the test plates were stained with the tetrazolium dye XTT (2,3-bis(2-methoxy-4-nitro-5-sulfophenyl)-5-[(phenylamino)carbonyl]-2H-tetrazolium hydroxide). XTT-tetrazolium was metabolized by the mitochondrial enzymes of metabolically active cells to a soluble formazan product. XTT solution was prepared daily as a stock of 1 mg/mL in RPMI1640. Phenazine methosulfate (PMS) solution was prepared at 0.15 mg/mL in phosphate buffered saline (PBS) and stored in the dark at −20° C. XTT/PMS stock was prepared immediately before use by adding 40 μL of PMS per mL of XTT solution. Fifty (50) microlitres of XTT/PMS was added to each well of the plate and the plate was reincubated for 4 hours at 37° C. Plates were sealed with adhesive plate sealers and shaken gently or inverted several times to mix the soluble formazan product and the plate was read spectrophotometrically at 450/650 nm with a Molecular Devices Vmax plate reader. […] An Average Response Factor (ARF) was calculated for each compound by averaging the ten Percentage of Control values for the cell lines. […] Deviations below 100% control indicate activity. The concentration of each tested compound is 10 μM.

HL-60 = test: Cell viability by XTT; assay type: cell-based; conditions: HL-60, single dose 10 μM, four days
Method: as §1, §2, §3, §4

[3] = Homo sapiens, read-out: LC50 (the source's name)

Compound	GI50 (K-562; Homo sapiens, K562) [µM]	TGI (HOP-62) [µM]	GI50 (HOP-62; Homo sapiens) [µM]	GI50 (NCI-H322M) [µM]	CC50 (NCI-H322M) [µM]	TGI (NCI-H322M) [µM]	TGI (HCT-15 [1]) [µM]	GI50 (HCT-15 [1]) [µM]	CC50 (HCT-15 [1]) [µM]	GI50 (SK-MEL-5; Homo sapiens) [µM]	TGI (SK-MEL-5) [µM]	GI50 (UACC-62) [µM]	CC50 (UACC-62) [µM]	TGI (UACC-62) [µM]	GI50 (SN12C) [µM]	CC50 (SN12C) [µM]	TGI (SN12C) [µM]	further results
CC(C)(C)c1ccc(NC(=O)[C@H](CCCCN)NC(=O)OCC2c3ccccc3-c3ccccc32)cc1 [Compound 105, (S)-[5-AMINO-1-(4-TERT-BUTYL-PHENYLCARBAMOYL)-PENTYL]-CARBAMIC ACID 9H-FLUOREN-9-YLMETHYL ESTER]	1.39	3.87	2.18	13.5	69.9	30.7	24.4	11.1	53.9	1.54	2.94	13.7	58.2	28.2	13.8	62.9	29.5	TGI (K-562): 3.32 µM; CC50 (HOP-62; [3]): 6.85 µM; GI50 (UACC-257; Homo sapiens): 1.75 µM; TGI (UACC-257): 3.70 µM; Percentage of Cell Control (HCT-15 [2]): 85.6%; Percentage of Cell Control (HL-60): 19.6%
Cc1ccc(NC(=O)[C@@H](CCCCN)NC(=O)Nc2ccc3c(c2)Cc2ccccc2-3)cc1 [Compound 173, (R)-6-AMINO-2-[3-(9H-FLUOREN-2-YL)-UREIDO]-HEXANOIC ACID P-TOLYLAMIDE]	1.67	3.79	1.88	2.54	39.8	12.0	87.8	23.9	> 100	1.03	26.5	1.15	6.52	2.74	1.17	5	2.41	CC50 (K-562; Homo sapiens, K562, read-out: LC50 (the source's name)): > 100 µM; CC50 (SK-MEL-5; [3]): 68.3 µM
